From EP4692321A1, “CELL STRUCTURE PRODUCTION METHOD” (Toppan Holdings Inc., priority 2023, dated 2024)

Assays:
vascularized liver model [1] = assay: Cell viability by ATP assay (CellTiter-Glo 3D) after monocrotaline (Test Example 5); assay type: cell-based, human; details: vascularized liver model compared to other models, 0 to 600 µM added on Day 7, 7 further days
Procedure: (§1) Except for using a 24-transwell as the culture vessel, culturing a cell mixture of 1.95 × 10^4 human hepatocytes (PXB Cells (registered trademark); manufactured by PhoenixBio Co., Ltd.) and 3.0 × 10^3 immortalized sinusoidal endothelial cells (SEC; manufactured by Sciencell, Product No. 5000) using the HCM medium including 50 ng/mL VEGF-A and 50 ng/mL VEGF-C as vascular development factors and 1 v/v% vascular maintenance factor cocktail,culturing a cell mixture of human hepatocytes (PXB Cells (registered trademark); manufactured by PhoenixBio Co., Ltd.), 7.5 × 10^3 immortalized sinusoidal endothelial cells (SEC, manufactured by Sciencell, Product No. "5000"), and 3.0 × 10^3 hepatic stellate cells (LX2; manufactured by Sigma-Aldrich) using the HCM medium including 1 v/v% vascular maintenance factor cocktail, orculturing a cell mixture of 2.1 × 10^3 immortalized sinusoidal endothelial cells (SEC; manufactured by Sciencell, Product No. "5000") and 9.0 × 10^3 hepatic stellate cells (LX2; manufactured by Sigma-Aldrich) using the HCM medium including 1 v/v% vascular maintenance factor cocktail, cell mixtures were cultured and cell structures were obtained in the same manner as in Test Example 4. […]
In addition, the cell viability of the similarly produced cell structure was also quantified by an ATP assay. […]

vascularized liver model [2] = assay: Vascular toxicity: CD31 immunostaining and blood vessel length after monocrotaline (Test Example 5); assay type: cell-based, human; details: vascularized liver model compared to other models; 0 to 600 µM added on Day 7, 7 further days; relative to no monocrotaline = 100%
Procedure: as §1
In addition, vascular structures were extracted from the microscopic images shown in FIGS. 8 and 9, and the blood vessel lengths of the cell structures were measured. […]

C[C@H]1C(=O)O[C@@H]2CCN3CC=C(COC(=O)[C@](C)(O)[C@]1(C)O)[C@H]23 [monocrotaline]
cell viability (vascularized liver model [1]): concentration-dependent decrease in cell viability
blood vessel length (vascularized liver model [2]): notably shorter blood vessel length
